Test results: patent US20050112573A1, “Method of detecting toxic substance” (priority 2001, published 2005)

Tested on: yeast genes (level of expressed mRNA)
Test: DNA chip analysis of expressed mRNA of yeast genes after 2 h culture with a toxic chemical substance
Assay type: cell-based, Saccharomyces cerevisiae S288C
Procedure, shortened: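 S. cerevisiae S288C in YPD at 25 °C was exposed at log phase for 2 h to a growth-inhibiting, non-lethal concentration of the chemical. Poly(A) mRNA was reverse-transcribed with Cy3- or Cy5-dUTP and hybridized to a whole-genome yeast DNA chip (65 °C, >12 h). Values are fluorescence ratios versus untreated cells.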

Q: Which “The level of expressed mRNA in the presence of chemical substance/” value (yeast gene YFL010C, ratio to control without chemical substance, 2 h culture) does the source give for HgCl2 [(3)] here?
A: The value was 1.3.

Q: And the “The level of expressed mRNA in the presence of chemical substance/” value (yeast gene YFL024C, ratio to control without chemical substance, 2 h culture)?
A: The value was 1.1.

Q: What about the “The level of expressed mRNA in the presence of chemical substance/The level of expressed mRNA in the absence of chemical substance” value (yeast gene YFL028C) of the same substance?
A: The value was 0.7.

Q: And the “The level of expressed mRNA in the presence of chemical substance/” value (yeast gene YFL032W, ratio to control without chemical substance, 2 h culture)?
A: Its value is 1.6.

Q: What about the “The level of expressed mRNA in the presence of chemical substance/The level of expressed mRNA in the absence of chemical substance” value (yeast gene YFL043C) of the same substance?
A: The value was 0.6.

Q: What about the “The level of expressed mRNA in the presence of chemical substance/in the absence of chemical substance” value (yeast gene YGL035C) of the same substance?
A: The value was 4.3.

Q: What about the “The level of expressed mRNA in the presence of chemical substance/” value (yeast gene YGL037C, ratio to control without chemical substance, 2 h culture) of the same substance?
A: The value was 6.5.

Q: What about the “The level of expressed mRNA in the presence of chemical substance/” value (yeast gene YGL047W, ratio to control without chemical substance, 2 h culture) of the same substance?
A: The value was 1.6.

Q: What about the “The level of expressed mRNA in the presence of chemical substance/” value (yeast gene YGL053W, ratio to control without chemical substance, 2 h culture) of the same substance?
A: The value was 1.2.

Q: And the “The level of expressed mRNA in the presence of chemical substance/” value (yeast gene YGL121C, ratio to control without chemical substance, 2 h culture)?
A: Its value is 1.4.

Q: What about the “The level of expressed mRNA in the presence of chemical substance/The level of expressed mRNA in the absence of chemical substance” value (yeast gene YGL158W) of the same substance?
A: The value was 1.9.

Q: What about the “The level of expressed mRNA in the presence of chemical substance/” value (yeast gene YGL199C, ratio to control without chemical substance, 2 h culture) of the same substance?
A: The value was 1.7.

Q: And the “The level of expressed mRNA in the presence of chemical substance/The level of expressed mRNA in the absence of chemical substance” value (yeast gene YGL229C)?
A: The value was 0.9.

Q: What about the “The level of expressed mRNA in the presence of chemical substance/” value (yeast gene YGR101W, ratio to control without chemical substance, 2 h culture) of the same substance?
A: The value was 1.2.

Q: And the “The level of expressed mRNA in the presence of chemical substance/” value (yeast gene YGR110W, ratio to control without chemical substance, 2 h culture)?
A: The value was 2.2.

Q: What about the “The level of expressed mRNA in the presence of chemical substance/” value (yeast gene YGR130C, ratio to control without chemical substance, 2 h culture) of the same substance?
A: Its value is 0.6.

Q: And the “The level of expressed mRNA in the presence of chemical substance/The level of expressed mRNA in the absence of chemical substance” value (yeast gene YGR136W)?
A: Its value is 1.3.

Q: What about the “The level of expressed mRNA in the presence of chemical substance/” value (yeast gene YGR154C, ratio to control without chemical substance, 2 h culture) of the same substance?
A: The value was 2.2.

Q: What about the “The level of expressed mRNA in the presence of chemical substance/The level of expressed mRNA in the absence of chemical substance” value (yeast gene YGR189C) of the same substance?
A: The value was 1.5.

Q: And the “The level of expressed mRNA in the presence of chemical substance/The level of expressed mRNA in the absence of chemical substance” value (yeast gene YGR213C)?
A: Its value is 1.0.

Q: What about the “The level of expressed mRNA in the presence of chemical substance/” value (yeast gene YGR221C, ratio to control without chemical substance, 2 h culture) of the same substance?
A: The value was 0.9.

Q: What about the “The level of expressed mRNA in the presence of chemical substance/The level of expressed mRNA in the absence of chemical substance” value (yeast gene YGR257C) of the same substance?
A: Its value is 0.9.

Q: What about the “The level of expressed mRNA in the presence of chemical substance/in the absence of chemical substance” value (yeast gene YGR287C) of the same substance?
A: The value was 1.3.

Q: And the “The level of expressed mRNA in the presence of chemical substance/The level of expressed mRNA in the absence of chemical substance” value (yeast gene YHR004C)?
A: The value was 0.8.

Q: What about the “The level of expressed mRNA in the presence of chemical substance/The level of expressed mRNA in the absence of chemical substance” value (yeast gene YHR071W) of the same substance?
A: The value was 0.6.

Q: And the “The level of expressed mRNA in the presence of chemical substance/” value (yeast gene YHR138C, ratio to control without chemical substance, 2 h culture)?
A: The value was 2.2.

Q: What about the “The level of expressed mRNA in the presence of chemical substance/The level of expressed mRNA in the absence of chemical substance” value (yeast gene YHR139C) of the same substance?
A: The value was 6.8.

Q: What about the “The level of expressed mRNA in the presence of chemical substance/The level of expressed mRNA in the absence of chemical substance” value (yeast gene YHR142W) of the same substance?
A: Its value is 2.1.

Q: What about the “The level of expressed mRNA in the presence of chemical substance/” value (yeast gene YHR199C, ratio to control without chemical substance, 2 h culture) of the same substance?
A: The value was 3.2.

Q: What about the “The level of expressed mRNA in the presence of chemical substance/” value (yeast gene YIL023C, ratio to control without chemical) of the same substance?
A: Its value is 2.1.

Q: And the “The level of expressed mRNA in the presence of chemical substance/” value (yeast gene YIL041W, ratio to control without chemical substance, 2 h culture)?
A: Its value is 2.1.

Q: And the “The level of expressed mRNA in the presence of chemical substance/” value (yeast gene YIL087C, ratio to control without chemical substance, 2 h culture)?
A: The value was 3.4.

Q: What about the “The level of expressed mRNA in the presence of chemical substance/The level of expressed mRNA in the absence of chemical substance” value (yeast gene YIL123W) of the same substance?
A: Its value is 1.2.

Q: And the “The level of expressed mRNA in the presence of chemical substance/The level of expressed mRNA in the absence of chemical substance” value (yeast gene YIL140W)?
A: Its value is 1.5.

Q: And the “The level of expressed mRNA in the presence of chemical substance/” value (yeast gene YJL057C, ratio to control without chemical substance, 2 h culture)?
A: Its value is 1.6.

Q: What about the “The level of expressed mRNA in the presence of chemical substance/” value (yeast gene YJL066C, ratio to control without chemical substance, 2 h culture) of the same substance?
A: Its value is 1.2.

Q: What about the “The level of expressed mRNA in the presence of chemical substance/in the absence of chemical substance” value (yeast gene YJL070C) of the same substance?
A: Its value is 1.1.

Q: And the “The level of expressed mRNA in the presence of chemical substance/The level of expressed mRNA in the absence of chemical substance” value (yeast gene YJL073W)?
A: Its value is 2.5.

Q: And the “The level of expressed mRNA in the presence of chemical substance/” value (yeast gene YJL082W, ratio to control without chemical substance, 2 h culture)?
A: Its value is 2.4.

Q: What about the “The level of expressed mRNA in the presence of chemical substance/The level of expressed mRNA in the absence of chemical substance” value (yeast gene YJL089W) of the same substance?
A: Its value is 1.0.

Q: And the “The level of expressed mRNA in the presence of chemical substance/The level of expressed mRNA in the absence of chemical substance” value (yeast gene YJL116C)?
A: Its value is 1.3.

Q: What about the “The level of expressed mRNA in the presence of chemical substance/” value (yeast gene YJL151C, ratio to control without chemical substance, 2 h culture) of the same substance?
A: The value was 3.2.

Q: And the “The level of expressed mRNA in the presence of chemical substance/” value (yeast gene YJL152W, ratio to control without chemical substance, 2 h culture)?
A: The value was 1.8.

Q: What about the “The level of expressed mRNA in the presence of chemical substance/” value (yeast gene YJL161W, ratio to control without chemical substance, 2 h culture) of the same substance?
A: The value was 1.5.

Q: And the “The level of expressed mRNA in the presence of chemical substance/in the absence of chemical substance” value (yeast gene YJL167W)?
A: Its value is 1.4.

Q: What about the “The level of expressed mRNA in the presence of chemical substance/” value (yeast gene YJL171C, ratio to control without chemical substance, 2 h culture) of the same substance?
A: The value was 2.8.

Q: And the “The level of expressed mRNA in the presence of chemical substance/in the absence of chemical substance” value (yeast gene YJL216C)?
A: The value was 2.2.

Q: What about the “The level of expressed mRNA in the presence of chemical substance/The level of expressed mRNA in the absence of chemical substance” value (yeast gene YJR004C) of the same substance?
A: The value was 3.4.

Q: What about the “The level of expressed mRNA in the presence of chemical substance/” value (yeast gene YJR008W, ratio to control without chemical substance, 2 h culture) of the same substance?
A: Its value is 1.2.

Q: What about the “The level of expressed mRNA in the presence of chemical substance/” value (yeast gene YJR054W, ratio to control without chemical) of the same substance?
A: The value was 0.3.

Q: And the “The level of expressed mRNA in the presence of chemical substance/The level of expressed mRNA in the absence of chemical substance” value (yeast gene YJR086W)?
A: The value was 0.8.

Q: And the “The level of expressed mRNA in the presence of chemical substance/The level of expressed mRNA in the absence of chemical substance” value (yeast gene YKL008C)?
A: Its value is 2.0.

Q: And the “The level of expressed mRNA in the presence of chemical substance/The level of expressed mRNA in the absence of chemical substance” value (yeast gene YKL013C)?
A: The value was 1.4.

Q: What about the “The level of expressed mRNA in the presence of chemical substance/The level of expressed mRNA in the absence of chemical substance” value (yeast gene YKL039W) of the same substance?
A: The value was 2.4.

Q: What about the “The level of expressed mRNA in the presence of chemical substance/The level of expressed mRNA in the absence of chemical substance” value (yeast gene YKL041W) of the same substance?
A: The value was 1.1.

Q: What about the “The level of expressed mRNA in the presence of chemical substance/” value (yeast gene YKL071W, ratio to control without chemical substance, 2 h culture) of the same substance?
A: Its value is 5.4.
